Legend:
MRC5 [1] = assay: Effect on ADCY8 gene expression in human MRC5 cells infected with Varicella zoster virus Ellen at 100 uM after 24 hrs by DNA microarray analysis; type: functional
MRC5 [2] = assay: Effect on ACTA1 gene expression in human MRC5 cells infected with Varicella zoster virus Ellen at 100 uM after 24 hrs by DNA microarray analysis; type: functional
MRC5 [3] = assay: Effect on CXCL1 gene expression in human MRC5 cells infected with Varicella zoster virus Ellen at 100 uM after 24 hrs by DNA microarray analysis; type: functional
MRC5 [4] = assay: Effect on RPL37A gene expression in human MRC5 cells infected with Varicella zoster virus Ellen at 100 uM after 24 hrs by DNA microarray analysis; type: functional
MRC5 [5] = assay: Effect on ACVR1 gene expression in human MRC5 cells infected with Varicella zoster virus Ellen at 100 uM after 24 hrs by DNA microarray analysis; type: functional
Human alphaherpesvirus 3 = assay: Antiviral activity against Varicella zoster virus Ellen infected in human MRC5 cells assessed as inhibition of viral replication by viral reduction plaque assay; type: functional, organism-based; conditions: Human alphaherpesvirus 3, Ellen
MRC5 [6] = assay: Effect on DDX27 gene expression in human MRC5 cells infected with Varicella zoster virus Ellen at 100 uM after 24 hrs by DNA microarray analysis; type: functional
MRC5 [7] = assay: Effect on SLC20A2 gene expression in human MRC5 cells infected with Varicella zoster virus Ellen at 100 uM after 24 hrs by DNA microarray analysis; type: functional
MRC5 [8] = assay: Effect on MRPS18B gene expression in human MRC5 cells infected with Varicella zoster virus Ellen at 100 uM after 24 hrs by DNA microarray analysis; type: functional
[9] = Antiviral coefficient, ratio of CC50 for human MRC5 cells to IC50 for Varicella zoster virus Ellen infected in human MRC5 cells; type: functional
MRC5 [10] = assay: Cytotoxicity against human MRC5 cells assessed as inhibition of cell viability at >1000 uM after 24 hrs by MTT assay; type: cell-based; conditions: mrc5, 24 h
MRC5 [11] = assay: Effect on KRT5 gene expression in human MRC5 cells infected with Varicella zoster virus Ellen at 100 uM after 24 hrs by DNA microarray analysis; type: functional
MRC5 [12] = assay: Effect on RNF43 gene expression in human MRC5 cells infected with Varicella zoster virus Ellen at 100 uM after 24 hrs by DNA microarray analysis; type: functional
MRC5 [13] = assay: Effect on CACNB4 gene expression in human MRC5 cells infected with Varicella zoster virus Ellen at 100 uM after 24 hrs by DNA microarray analysis; type: functional
MRC5 [14] = assay: Effect on KCNS3 gene expression in human MRC5 cells infected with Varicella zoster virus Ellen at 100 uM after 24 hrs by DNA microarray analysis; type: functional
MRC5 [15] = assay: Effect on ZMYND15 gene expression in human MRC5 cells infected with Varicella zoster virus Ellen at 100 uM after 24 hrs by DNA microarray analysis; type: functional
MRC5 [16] = assay: Effect on CDC27 gene expression in human MRC5 cells infected with Varicella zoster virus Ellen at 100 uM after 24 hrs by DNA microarray analysis; type: functional
[17] = Antiviral coefficient, ratio of CC90 for human MRC5 cells to IC90 for Varicella zoster virus Ellen infected in human MRC5 cells; type: functional
MRC5 [18] = assay: Effect on MT1M gene expression in human MRC5 cells infected with Varicella zoster virus Ellen at 100 uM after 24 hrs by DNA microarray analysis; type: functional
[19] = Cytotoxicity against human MRC5 cells assessed as inhibition of cell viability after 24 hrs by MTT assay; type: cell-based
MRC5 [20] = assay: Effect on EIF2B1 gene expression in human MRC5 cells infected with Varicella zoster virus Ellen at 100 uM after 24 hrs by DNA microarray analysis; type: functional
MRC5 [21] = assay: Effect on PSME1 gene expression in human MRC5 cells infected with Varicella zoster virus Ellen at 100 uM after 24 hrs by DNA microarray analysis; type: functional
MRC5 [22] = assay: Effect on SAP18 gene expression in human MRC5 cells infected with Varicella zoster virus Ellen at 100 uM after 24 hrs by DNA microarray analysis; type: functional
MRC5 [23] = assay: Effect on SNRPB gene expression in human MRC5 cells infected with Varicella zoster virus Ellen at 100 uM after 24 hrs by DNA microarray analysis; type: functional
MRC5 [24] = assay: Effect on TPM2 gene expression in human MRC5 cells infected with Varicella zoster virus Ellen at 100 uM after 24 hrs by DNA microarray analysis; type: functional

Q: For `CC(C)CC(=O)[C@@H](O)Cc1ccccc1`, which “fold change (FC)” value (MRC5 [1]) is on record?
A: -1.328

Q: And the “fold change (FC)” value (MRC5 [2])?
A: 0.545

Q: And the “fold change (FC)” value (MRC5 [3])?
A: 0.544

Q: And the “fold change (FC)” value (MRC5 [4])?
A: -1.282

Q: What about the “fold change (FC)” value (MRC5 [5]) of the same molecule?
A: -1.105

Q: What about the IC50 (Human alphaherpesvirus 3) of the same molecule?
A: 58 µM

Q: What about the IC90 (Human alphaherpesvirus 3) of the same molecule?
A: 109 µM

Q: And the “fold change (FC)” value (MRC5 [6])?
A: 0.642

Q: What about the “fold change (FC)” value (MRC5 [7]) of the same molecule?
A: 0.675

Q: And the “fold change (FC)” value (MRC5 [8])?
A: -1.168

Q: And the “Ratio CC50/IC50” value [9]?
A: 13.2

Q: And the Activity (MRC5 [10])?
A: Toxic

Q: What about the “fold change (FC)” value (MRC5 [11]) of the same molecule?
A: 0.566

Q: What about the “fold change (FC)” value (MRC5 [12]) of the same molecule?
A: -1.092

Q: And the “fold change (FC)” value (MRC5 [13])?
A: 0.741

Q: What about the “fold change (FC)” value (MRC5 [14]) of the same molecule?
A: 0.673

Q: What about the “fold change (FC)” value (MRC5 [15]) of the same molecule?
A: 0.577

Q: What about the “fold change (FC)” value (MRC5 [16]) of the same molecule?
A: 0.823

Q: And the Ratio [17]?
A: 35.6

Q: What about the “fold change (FC)” value (MRC5 [18]) of the same molecule?
A: -1.153

Q: And the CC50 at 24 h [19]?
A: 765 µM

Q: What about the CC90 at 24 h [19] of the same molecule?
A: 3880 µM

Q: What about the “fold change (FC)” value (MRC5 [20]) of the same molecule?
A: -1.402

Q: What about the “fold change (FC)” value (MRC5 [21]) of the same molecule?
A: 0.576

Q: What about the “fold change (FC)” value (MRC5 [22]) of the same molecule?
A: -1.128

Q: What about the “fold change (FC)” value (MRC5 [23]) of the same molecule?
A: -1.193

Q: What about the “fold change (FC)” value (MRC5 [24]) of the same molecule?
A: -1.336

Q: For `Nc1nc2c(ncn2COCCO)c(=O)[nH]1` [ACYCLOVIR], which IC50 (Human alphaherpesvirus 3) is on record?
A: 13 µM

Q: With `Nc1nc(O)c2ncn(CCC(CO)CO)c2n1` [PENCICLOVIR] as the molecule, how does the IC50 (Human alphaherpesvirus 3) read?
A: 16 µM

From ChEMBL document CHEMBL2311537, “Antiviral activity of (+)-sattabacin against varicella zoster” (Bioorg Med Chem Lett, 2013)
